Measured values published in patent publication US6516294B1, “Nuclear receptor for 1α,25-dihydroxyvitamin D3 useful for selection of vitamin D3 ligands and a method therefor” (The Regents of the University of California, priority 1999, dated 2003).

How the values were obtained:
[1] = biological target: T1, VDR (Homo sapiens, UniProt P11473); assay: Binding to the VDR relative to 1α,25(OH)2D3; conditions: 1α,25(OH)2D3 as reference
T1 sequence (P11473 1-427): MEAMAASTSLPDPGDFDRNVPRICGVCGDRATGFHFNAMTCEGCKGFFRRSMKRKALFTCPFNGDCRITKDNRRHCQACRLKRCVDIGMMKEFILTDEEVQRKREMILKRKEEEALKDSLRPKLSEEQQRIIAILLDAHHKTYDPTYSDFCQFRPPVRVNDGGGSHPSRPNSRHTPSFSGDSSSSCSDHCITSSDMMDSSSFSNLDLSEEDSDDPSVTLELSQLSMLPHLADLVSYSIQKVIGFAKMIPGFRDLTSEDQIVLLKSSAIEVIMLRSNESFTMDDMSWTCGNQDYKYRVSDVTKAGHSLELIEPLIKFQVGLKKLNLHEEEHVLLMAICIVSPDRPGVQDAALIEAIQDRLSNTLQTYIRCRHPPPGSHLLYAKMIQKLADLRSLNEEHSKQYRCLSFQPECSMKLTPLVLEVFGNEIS
Source text: (§1) One striking ligand-receptor structure-function relationship for 1α,25(OH)2D3 analogs relates to the chiral center at carbon 20 (see FIG. 7A) of the steroid side chain. The 20-epi analogs are 100-10,000 times more transcriptionally potent than the natural hormone 1α,25(OH)2D3, even though their affinity for the VDR is not greater. It is also known that the side chain of 20-normal versus 20-epi analogs of 1α,25(OH)2D3 is able to access different regions of three-dimensional space around the C/D ring. […] Med. Chem. Lett., 3:1799 (1998).
(§2) The problem of docking in the VDR LBD a unique analog of 1α,25(OH)2D3 that has a second side chain attached to carbon 20, such as Gemini [21-(3′-hydroxy-3-methylbutyl)-1α,25(OH)2D3], was also evaluated. Thus, Gemini has both a 20-normal and a 20-epi side chain. […] This conclusion is also consistent both with the proposal that the ligand enters the VDR LBD leading with its A-ring and with the unique trypsin sensitivity of a VDR LBD-Gemini complex.

[2] = system: osteocalcin promoter; assay: Transactivation of the osteocalcin promoter; format: cell-based; conditions: more potent than 1α,25(OH)2D3
Source text: as §1
The seemingly benign structural change of the ligand from a 20-normal to 20-epi 1α,25(OH)2D3 results in a new conformational change in the VDR as assessed by trypsin sensitivity. This conformational change is believed to reflect an altered orientation of helix 12. Thus a VDR with a 20-epi ligand has an enhanced dimerization with RXR, resulting in increased transactivation of the osteocalcin promoter.
as §2

C=C1/C(=C\C=C2/CCC[C@]3(C)[C@@H](C(CCCC(C)(C)O)CCCC(C)(C)O)CC[C@@H]23)C[C@H](O)C[C@H]1O [Gemini, 21-(3′-hydroxy-3-methylbutyl)-1α,25(OH)2D3]
binding to the VDR relative to 1α,25(OH)2D3 [1]: 40% | potency relative to 1α,25(OH)2D3, transactivation of the osteocalcin promoter [2]: 13 -fold
